Source: ChEMBL document CHEMBL1144732 (Bioorg Med Chem Lett, 2008)

What was measured:
Carbonic anhydrase 13 = Carbonic anhydrase 13 (Mus musculus, UniProt Q9D6N1)
Carbonic anhydrase 4 = Carbonic anhydrase 4 (Homo sapiens, UniProt P22748)
Carbonic anhydrase 14 = Carbonic anhydrase 14 (Homo sapiens, UniProt Q9ULX7)
[1] = target: Carbonic anhydrase 5B, mitochondrial (Homo sapiens, UniProt Q9Y2D0)
Carbonic anhydrase 3 = Carbonic anhydrase 3 (Homo sapiens, UniProt P07451)
[2] = target: Carbonic anhydrase 5A, mitochondrial (Homo sapiens, UniProt P35218)
Carbonic anhydrase 5A, mitochondrial, sequence (P35218 whole entry): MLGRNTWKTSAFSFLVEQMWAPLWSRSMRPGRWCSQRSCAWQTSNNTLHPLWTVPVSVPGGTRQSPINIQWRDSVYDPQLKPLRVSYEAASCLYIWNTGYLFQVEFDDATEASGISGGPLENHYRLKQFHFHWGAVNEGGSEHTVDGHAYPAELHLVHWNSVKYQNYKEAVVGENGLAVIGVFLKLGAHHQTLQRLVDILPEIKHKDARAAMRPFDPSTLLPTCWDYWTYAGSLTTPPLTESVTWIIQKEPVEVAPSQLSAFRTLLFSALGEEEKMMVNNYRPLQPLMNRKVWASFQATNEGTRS

Carbonic anhydrase 13, sequence (Q9D6N1 whole entry): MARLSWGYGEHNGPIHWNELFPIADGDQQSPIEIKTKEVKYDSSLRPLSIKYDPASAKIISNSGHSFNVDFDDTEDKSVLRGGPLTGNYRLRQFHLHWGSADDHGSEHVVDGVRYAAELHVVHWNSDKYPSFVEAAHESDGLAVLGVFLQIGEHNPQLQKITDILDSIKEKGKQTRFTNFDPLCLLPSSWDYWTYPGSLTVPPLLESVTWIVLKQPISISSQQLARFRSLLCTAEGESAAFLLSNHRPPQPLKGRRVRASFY
Carbonic anhydrase 4, sequence (P22748 whole entry): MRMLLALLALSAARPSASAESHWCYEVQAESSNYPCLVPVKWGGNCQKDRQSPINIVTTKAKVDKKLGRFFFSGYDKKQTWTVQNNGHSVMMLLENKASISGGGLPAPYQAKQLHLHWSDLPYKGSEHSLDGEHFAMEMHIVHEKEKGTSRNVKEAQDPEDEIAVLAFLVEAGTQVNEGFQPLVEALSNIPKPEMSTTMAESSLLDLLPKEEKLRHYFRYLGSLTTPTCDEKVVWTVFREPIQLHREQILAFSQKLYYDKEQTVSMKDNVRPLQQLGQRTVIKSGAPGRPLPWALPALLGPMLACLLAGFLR
Carbonic anhydrase 3, sequence (P07451 whole entry): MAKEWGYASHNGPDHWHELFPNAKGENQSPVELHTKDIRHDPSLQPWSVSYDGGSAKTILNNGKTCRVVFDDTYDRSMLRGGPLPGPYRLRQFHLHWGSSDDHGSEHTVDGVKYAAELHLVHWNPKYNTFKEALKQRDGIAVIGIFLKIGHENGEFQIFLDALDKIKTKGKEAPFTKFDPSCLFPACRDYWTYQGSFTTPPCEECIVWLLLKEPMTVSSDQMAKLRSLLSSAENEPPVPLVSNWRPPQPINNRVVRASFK
Carbonic anhydrase 5B, mitochondrial, sequence (Q9Y2D0 whole entry): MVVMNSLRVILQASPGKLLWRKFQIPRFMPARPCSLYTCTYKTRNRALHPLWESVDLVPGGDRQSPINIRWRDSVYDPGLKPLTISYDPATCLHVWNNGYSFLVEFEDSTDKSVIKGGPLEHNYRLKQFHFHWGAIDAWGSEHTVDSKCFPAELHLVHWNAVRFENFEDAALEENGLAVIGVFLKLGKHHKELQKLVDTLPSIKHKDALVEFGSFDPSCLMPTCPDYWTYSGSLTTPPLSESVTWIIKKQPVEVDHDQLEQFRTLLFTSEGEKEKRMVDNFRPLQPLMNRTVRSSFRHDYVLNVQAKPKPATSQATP
Carbonic anhydrase 14, sequence (Q9ULX7 whole entry): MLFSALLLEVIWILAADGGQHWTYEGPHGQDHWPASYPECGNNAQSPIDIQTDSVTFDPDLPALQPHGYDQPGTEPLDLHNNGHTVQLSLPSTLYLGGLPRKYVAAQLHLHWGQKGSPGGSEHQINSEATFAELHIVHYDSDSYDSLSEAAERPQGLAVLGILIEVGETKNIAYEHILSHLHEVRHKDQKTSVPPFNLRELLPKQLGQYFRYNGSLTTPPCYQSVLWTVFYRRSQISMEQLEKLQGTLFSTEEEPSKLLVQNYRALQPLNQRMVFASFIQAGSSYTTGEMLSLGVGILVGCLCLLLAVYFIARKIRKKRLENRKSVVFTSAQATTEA

Ki (Carbonic anhydrase 13) [nM] | Ki (Carbonic anhydrase 4) [nM] | Ki (Carbonic anhydrase 14) [nM] | Ki [1] [nM] | Ki (Carbonic anhydrase 3) [nM] | Ki [2] [nM] | Structure (SMILES)
10 | 3950 |  |  |  |  | CCNC1CN(CCCOC)S(=O)(=O)c2sc(S(N)(=O)=O)cc21 (single isomer, unassigned) [BRINZOLAMIDE]
1450 |  | 1540 | 91 | 630000 | 81 | NS(=O)(=O)c1cc(Cl)c(Cl)c(S(N)(=O)=O)c1 [DICHLORPHENAMIDE]
